Source: patent US7943670B2, “Liquid formulations of ractopamine” (Eli Lilly and Company, priority 2004, dated 2011)
Counter-ions that a name gives are not always drawn.

Key:
Type in all cases: physicochemical
[1] = Physical stability on storage (precipitation / remaining in solution); settings: for Comment: physical stability on storage: 10% ractopamine; for physical stability on storage: 5° C. storage
[2] = Solubility determination of ractopamine HCl in liquid agents (visual, 1-dram vials)
Protocol: Solubility determinations are performed in 1-dram vials. Add ractopamine HCl to a vial containing a liquid agent to give a final w/w ratio of 10% ractopamine HCl to liquid agent. Mix the solution vigorously on a vortex mixer for 2 to 6 minutes. After the mixing period, visually, assess whether the ractopamine dissolves in the liquid agent or whether insoluble material (cloudy solution or two distinct phases) remains in the vial. If the solubility is less than 10%, add additional liquid agent to dilute the ractopamine HCl to a 5-8% range. Repeat the mixing procedure and assess whether the ractopamine is soluble in the liquid agent or whether it remains insoluble at the lower concentration. Apply heat (from room temperature up to 60° C.) as needed to aid solubilization. Allow heated samples to cool to room temperature to assess solubility by visual observation for precipitant or cloudiness.

[3] = Chemical stability on storage: related substances by chromatogram comparison
[4] = Solubility of ractopamine (water, PG, PEG vehicle systems)

Compound: CC(CCc1ccc(O)cc1)NCC(O)c1ccc(O)cc1 (stereo not drawn) [ractopamine HCl]
- Comment: physical stability on storage ([1]; Polyoxyethylene 20 Sorbitan Monolaurate to water below 50/50, prolonged storage at 5° C.): below 50/50 precipitate after
- Comment: physical stability on storage ([1]; Polyoxyethylene-20-Sorbitan Monooleate to water below 50/50, prolonged storage at 5° C.): below 50/50 precipitate after
- Comment: physical stability on storage ([1]; Polyoxyl 35 Castor Oil to water at 50/50, short term (3 months) storage at 5° C.): somewhat viscous and precipitate
- Solubility @ RT ([2]; 1,3 Dioxolane): <5%
- Solubility @ RT ([2]; 1-Butanol): <10%
- Solubility @ RT ([2]; 1-Methyl-2-Pyrrolidinone (Pharmasolve)): <5%
- Solubility @ RT ([2]; 2-Pyrrolidone (2-Pyrol)): ≦5%
- Solubility @ RT ([2]; 4-Methyl-1-3Dioxolane): <5%
- Solubility @ RT ([2]; Acetaldehyde Phenethyl Propyl Acetal (Acetal R)): <10%
- Solubility @ RT ([2]; Acetic Acid Glacial (50% solution)): ≧10%
- Solubility @ RT ([2]; Acetone): <10%
- Solubility @ RT ([2]; Acetophenone): <10%
- Solubility @ RT ([2]; Agrimax 3 (2-pyrrolidinone, 1-Octyl 2-Pyrrolidinone, 1-Ethenylhexadecyl-, Homopolymer Sulfuric Acid Monododecyl Ester Sodium Salt)): <5%
- Solubility @ RT ([2]; AgsolEx 8): <5%
- Solubility @ RT ([2]; Amyl Acetate): <5%
- Solubility @ RT ([2]; Aromatic 100): <5%
- Solubility @ RT ([2]; Aromatic 200 (SC Solvent 200)): <5%
- Solubility @ RT ([2]; Benzoic Acid (0.3% solution)): <10%
- Solubility @ RT ([2]; Benzyl Alcohol): ≧5%
- Solubility @ RT ([2]; Block Copolymer Pluronic L31): ≦10%
- Solubility @ RT ([2]; Block Copolymer Pluronic L61, 50/50 water): ≧10%
- Solubility @ RT ([2]; Block Copolymer Pluronic L61, Neat (Viscous)): ≦10%
- Solubility @ RT ([2]; Caprylic/Capric Triglycerides, BP, FP (Labrafac CC)): <5%
- Solubility @ RT ([2]; Caprylic/capric triglyceride (Migylol 810)): <8%
- Solubility @ RT ([2]; Centrapour Clear Fry Oil): <5%
- Solubility @ RT ([2]; Citric Acid (50% solution)): <5%
- Solubility @ RT ([2]; Corn Oil (Mazzola)): <8%
- Solubility @ RT ([2]; Cyclohexanone): <10%
- Solubility @ RT ([2]; D-Gluconic Acid): <10%
- Solubility @ RT ([2]; D-Glucuronic Acid (20% solution)): <5%
- Solubility @ RT ([2]; Dichloromethane): <10%
- Solubility @ RT ([2]; Diethylene Glycol): ≧10%
- Solubility @ RT ([2]; Diethylenetriamine (DETA)): ≧10%
- Solubility @ RT ([2]; Dimethyl Isosorbide): <8%
- Solubility @ RT ([2]; Dipropylene glycol n-butyl ether): <10%
- Solubility @ RT ([2]; Ethanolamine): ≧10%
- Solubility @ RT ([2]; Ethyl Acetate): <5%
- Solubility @ RT ([2]; Ethyl Alcohol): <10%
- Solubility @ RT ([2]; Ethyl Lactate): <5%
- Solubility @ RT ([2]; Ethylene Glycol): ≧10%
- Solubility @ RT ([2]; Ethylenediamine): ≧20%
- Solubility @ RT ([2]; Forward DC): <5%
- Solubility @ RT ([2]; Fumaric Acid): <5%
- Solubility @ RT ([2]; Gamma Butylactone): <5%
- Solubility @ RT ([2]; Glutamic Acid (20% solution)): <5%
- Solubility @ RT ([2]; Glycerol Formal): ≦5%
- Solubility @ RT ([2]; Glyceryl and polyethylene glycol esters (Labrasol)): <5%
- Solubility @ RT ([2]; Glycol Ether PM): <5%
- Solubility @ RT ([2]; Hexane): <5%
- Solubility @ RT ([2]; Hydroxypropyl β-Cyclodextrin (Trappsol)): <10%
- Solubility @ RT ([2]; Isophorone): <10%
- Solubility @ RT ([2]; Isopropyl Myristrate (Emerest 2314)): <8%
- Solubility @ RT ([2]; L-Malic Acid (20% solution)): <5%
- Solubility @ RT ([2]; L-Tartaric Acid 20% solution): <5%
- Solubility @ RT ([2]; Lactic Acid (85% solution)): ≦10%
- Solubility @ RT ([2]; Maleic Acid (20% Solution)): ≦10%
- Solubility @ RT ([2]; Malonic Acid): ≧5%
- Solubility @ RT ([2]; Medium chain triglyceride (Migylol 812)): <8%
- Solubility @ RT ([2]; Methanol): ≧10%
- Solubility @ RT ([2]; Methyl Caprylate-Caprate (Emery 2209)): <8%
- Solubility @ RT ([2]; Methyl Oleate (Emery 2301)): <8%
- Solubility @ RT ([2]; Mineral Oil, QA246U): <5%
- Solubility @ RT ([2]; Mono-diglyceride of caprylic/capric fatty acids (Capmul MCM)): <8%
- Solubility @ RT ([2]; Monomethylated Polyethylene Glycol MPEG 350, 50/50 water): ≧10%
- Solubility @ RT ([2]; Monomethylated Polyethylene Glycol MPEG 350, Neat): ≦10%
- Solubility @ RT ([2]; Monomethylated Polyethylene Glycol MPEG 550, 50/50 water): ≧10%
- Solubility @ RT ([2]; Monomethylated Polyethylene Glycol MPEG 550, Neat): ≦10%
- Solubility @ RT ([2]; N,N, Dimethylacetamide): <5%
- Solubility @ RT ([2]; Nonylphenol Ethoxylate, POE-10 (Makon 10)): <5%
- Solubility @ RT ([2]; Oleic Acid (Priolene 6933)): <5%
- Solubility @ RT ([2]; Oleoyl Macrogolglycerides EP (Labrafil M 1944 CS)): <5%
- solubility ([2]; PCO to water 50:50 w/w): greater than 10%
- solubility ([2]; PSO to water 50:50 w/w): greater than 10%
- Solubility @ RT ([2]; Petroleum Ether): <5%
- Solubility @ RT ([2]; Petroleum distillates (naphtha), Panasol AN-2K): <5%
- Solubility @ RT ([2]; Phosphoric Acid (85% Solution)): <5%
- Solubility @ RT ([2]; Polyethylene Glycol Dimethyl Ether (DMPEG-350)): <5%
- Solubility @ RT ([2]; Polyethylene Glycol PEG 200, 50/50 water): ≧10%
- Solubility @ RT ([2]; Polyethylene Glycol PEG 200, Neat): ≦10%
- Solubility @ RT ([2]; Polyethylene Glycol PEG 300, 50/50 water): ≧10%
- Solubility @ RT ([2]; Polyethylene Glycol PEG 300, Neat): ≦10%
- Solubility @ RT ([2]; Polyethylene Glycol PEG 400, Neat (Viscous)): ≦10%
- Solubility @ RT ([2]; Polyglycol P-2000): <5%
- Solubility @ RT ([2]; Polyoxyethylene-20-Sorbitan Monolaurate (Tween 20), 50/50 water): ≧10%
- Solubility @ RT ([2]; Polyoxyethylene-20-Sorbitan Monolaurate (Tween 20), Neat (Viscous)): ≦10%
- Solubility @ RT ([2]; Polyoxyethylene-20-Sorbitan Monooleate (Tween 80), 50/50 water): ≧10%
- Solubility @ RT ([2]; Polyoxyethylene-20-Sorbitan Monooleate (Tween 80), Neat (Viscous)): ≦10%
- Solubility @ RT ([2]; Polyoxyl 35 Castor Oil (Cremophor EL), 50/50 water): ≧10%
- Solubility @ RT ([2]; Polyoxyl 35 Castor Oil (Cremophor EL), Neat (Viscous)): ≦10%
- Solubility @ RT ([2]; Propionic Acid (20% solution)): ≧10%
- Solubility @ RT ([2]; Propylene Carbonate): <5%
- Solubility @ RT ([2]; Propylene Glycol Laurate (Lauroglycol FCC)): <5%
- Solubility @ RT ([2]; Propylene glycol diester of caprylic/capric acid (Migylol 840)): <8%
- Solubility @ RT ([2]; Soybean Oil Methyl Ester (Soy Gold 2000)): <8%
- Solubility @ RT ([2]; Succinic Acid (5% Solution)): <5%
- Solubility @ RT ([2]; Sunflower Oil (Wesson)): <8%
- Solubility @ RT ([2]; Tetrahydrfurfuryl Alcohol (THFA)): ≦10%
- Solubility @ RT ([2]; Tetrahydrofuran (THF)): <10%
- Solubility @ RT ([2]; Toulene): <10%
- Solubility @ RT ([2]; Triacetin): <5%
- Solubility @ RT ([2]; Trichloroethylene): <10%
- Solubility @ RT ([2]; Triglyceride of caprylic/capric and succinic acid (Migylol 829)): <8%
- Solubility @ RT ([2]; β-Cyclodextrin Sulfbutyl Ether 7 Sodium Salt 20% Solution (Captisol)): <10%
- Comment: stability ([3]; Acetic Acid Glacial (50% solution), buffered 10% formulation, generation of new related subs in stability storage): Stability discontinued
- Comment: stability ([3]; Lactic Acid (85% solution), 10% formulation by heating and buffering pH, generation of new related subs in stability storage): Stability discontinued
- Comment: new related sub peaks in stability studies ([3]; MPEG solvents (MPEG 350, 550)): number of new related sub
- Comment: reaction with solvent ([3]; Methanol, forms methoxy ractopamine related substance): Methanol reacts with
- Comment: new related sub peaks in stability studies ([3]; PEG solvents (PEG 200, 300)): number of new related sub
- Comment: new related substance peaks in stability studies ([3]; Pluronic L61 to water at 50/50, 10% ractopamine): a number of new related
- Comment: stability ([3]; Propionic Acid (20% solution), generated a number of large related sub peaks): Stability discontinued -

Compound: CC(CCc1ccc(O)cc1)NCC(O)c1ccc(O)cc1 (stereo not drawn) [ractopamine]
- solubility ([4]; 100% propylene glycol (PG) or aqueous vehicle system containing PG): > 25 % w/w
- solubility (capable of dissolving) ([4]; vehicle 50% PG and 50% water, 25° C.): at least 10%
- concentration achievable in solution ([4]; vehicle system containing PEG 200, PEG 300, or both): > 20%
- physical stability on storage ([1]; 10% ractopamine formulations, PSO to water below 50/50 w/w): precipitate out
- physical stability on storage ([1]; Ten percent ractopamine formulations, PCO to water below 50/50 w/w): precipitate out
- solubility ([2]; PSL to water 50:50 w/w): greater than 10%
- reaction with solvent ([3]; PEG 200 / PEG 300 vehicle, not reversible under normal storage conditions): form covalently bonded related substances
- new related substances ([3]; aqueous PSL vehicle, storage up to 24 months at 25° C. and 12 months at 40° C.): < 0.2%
- new related substances ([3]; aqueous PSO vehicle, storage up to 24 months at 25° C.): < 0.2%
- formation of new related substances during storage ([3]; propylene glycol solutions, normal room temperature (~25° C.)): new related substances form slowly
